# Measured values taken from US11214586B2, “Rhodamine triplet state complex and preparation and photodynamic therapy (PDT) study thereof” (SOUTHERN UNIVERSITY OF SCIENCE AND TECHNOLOGY, priority 2018, dated 2022).
# Assays:
# [1] = Octanol-water partition coefficient
# Description: Octanol-water partition coefficients (log Po/w)^[27] of bpy-Rho and M-Rho have been measured in order to study their lipophilic/hydrophilic characters. The higher is the log Po/w value associated with the dye, the higher is its lipophilic character.
# MCF-7 cells = test: Mitochondrial membrane potential, flow-cytometry-based JC-1 assay; assay type: cell-based, human; details: 5 uM, 11 W lamp 30 min
# Description: Mitochondrial depolarization was assessed by flow cytometry after incubation with JC-1 Molecular Probes (Thermo Fisher Scientific, USA). Briefly, The MCF-7 cells were seeded in six-well plate, incubated for 24 h in 5% CO2 at 37° C. Next, added to compounds (bpy-Rho and M-Rho) in medium make the final concentrations of 5 uM compounds. After irradiation treatment (11 W lamp 30 min). The cells were resuspended in warm PBS, and incubated with JC-1 (4 μg/ml) for 30 min at 37° C. and 5% CO2. Thereafter the cells were centrifuged, resuspended in 600 μL of PBS, and analyzed immediately on a flow cytometer (Becton Dickinson, San Jose, Calif., USA). Untreated cells were used as negative controls.
# MCF-7 tumor-bearing mice = test: In vivo NIRF imaging, biodistribution and tumor accumulation
# Description: The procedures were approved by the Animal Care and Use Committee (Shenzhen Institutes of Advanced Technology, Chinese Academy of Sciences). Four-8-week-old female BALB/c mice or nude mice (Vital River Laboratory Animal Technology Co. Ltd., China) were subcutaneously injected with MCF-7 cells (1×10^6) in the flank region.
# The Maestro GNIR Flex imaging system and analysis with software from CRi was used to image tumor-bearing animals over time following i.v. treatment with Ir-Rho (200 μM, 150 μl). At each time point, the mouse was imaged at 600 nm excitation and 650 nm emission. At 24 h post injection, tumors and major organs were excised for ex vivo NIRF imaging to determine the tissue distribution of Ir-Rho. All main organs were cut with similar thickness and imaged at 600 nm excitation and 650 nm emission. The average fluorescence intensity of organs was from a region of interest (ROI) placed over the area of the organs on the image.
# A549 = test: Selective uptake by flow cytometry; assay type: cell-based, human; details: A549, 5 μM, 2 h incubation
# Description: (§1) Tumor cells (MCF-7/A 549/HepG2/4T1) and normal cells (MCF-10A/293T/L02/NIH-3T3) (1×10^4 cells) was cultured in six-well plate for 12 h. and then Cells were changed with a medium containing 5 μM complexes (rho-bpy, rho-bpy-Pt-ph, rho-bpy-Rh-ppy, rho-bpy-Re and rho-bpy-Ir-ppy). Cells were washed three times with PBS after 2 h of incubation, Then the cells were harvested, and the fluorescence intensity of complexes were recorded by flow cytometer.
# MCF-7 = test: Selective uptake by flow cytometry; assay type: cell-based, human; details: MCF-7, 5 μM, 2 h incubation
# Description: as §1
# [2] = ex vivo NIRF, 24 h post-injection
structure (smiles),measurement,setting,value
CCN(CC)c1ccc2c(-c3ccnc(-c4cc(C)ccn4)c3)c3ccc(=[N+](CC)CC)cc-3oc2c1.F[P-](F)(F)(F)(F)F.F[P-](F)(F)(F)(F)F.c1ccc(-c2cccc[c]2[Ir+][c]2ccccc2-c2ccccn2)nc1 [Ir-Rho],log Po/w,[1],−0.39
same,ratio of JC-1 aggregates/JC-1 monomers,MCF-7 cells,1.79
same,liver uptake,MCF-7 tumor-bearing mice; [2],relatively low liver uptake
same,tumor accumulation,MCF-7 tumor-bearing mice; [2],good tumor accumulation
same,time of peak tumor uptake,"MCF-7 tumor-bearing mice; i.v. injection via the tail vein, 200 μM, 150 μl",24 h
same,contrast index (CI),A549,higher than 2.5
same,contrast index (CI),MCF-7,higher than 2.5
